Reference: patent US4910196A, “Highly soluble antibacterially active organic salts of pyridobenzothiazines” (Mediolanum Farmaceutici Srl, priority 1986, dated 1990)
Where a name gives a salt, the structure may show the parent alone.

Experiments:
[1] = pH of the aqueous solution; format: physicochemical; details: for pH: in solution in water
physchem = details: water, Solubility in H2O

| SMILES | water solubility [mg/mL] | pH [1] | pH values (in words) ([1]; in solution) | pH ([1]; listed as gluconate) | solubility (physchem) [mg/mL] |
| --- | --- | --- | --- | --- | --- |
| CN1CCN(c2c(F)cc3c(=O)c(C(=O)O)cn4c3c2SCC4)CC1 [Salt with L-tartaric acid] | 6 | 4.09-4.10 | – | – | – |
| CN1CCN(c2c(F)cc3c(=O)c(C(=O)O)cn4c3c2SCC4)CC1 [Salt with gluconic acid] | 360 | 5.07-5.10 | particularly high pH | about 5 | 360 |
| CN1CCN(c2c(F)cc3c(=O)c(C(=O)O)cn4c3c2SCC4)CC1 [Salt with malonic acid] | 3 | 4.22 | – | – | – |

Second part, the molecule after the results:

| water solubility [mg/mL] | pH [1] | pH values (in words) ([1]; in solution) | pH ([1]; listed as gluconate) | solubility (physchem) [mg/mL] | SMILES |
| --- | --- | --- | --- | --- | --- |
| 8 | – | – | – | – | CN1CCN(c2c(F)cc3c(=O)c(C(=O)O)cn4c3c2SCC4)CC1 [9-fluoro-10[N-(4'-methyl)piperazinyl]-7-oxo-2,3-dihydro-7H-pyrido[1,2,3 de][1,4]benzothiazine-6-carboxylic acid hydrochloride, reference compound] |
| 2.7 | 3.99-4.00 | – | – | – | CN1CCN(c2c(F)cc3c(=O)c(C(=O)O)cn4c3c2SCC4)CC1 [Salt with citric acid] |
| 87 | approximately 3 | – | – | – | CN1CCN(c2c(F)cc3c(=O)c(C(=O)O)cn4c3c2SCC4)CC1 [methanesulphonate, 9-fluoro-10[N-(4'-methyl)piperazinyl]-7-oxo-2,3-dihydro-7H-pyrido[1,2,3 de][1,4]benzothiazine-6-carboxylic acid methanesulphonate] |
